Results: patent US12059682B2, “Method for isolation and morphological analysis of cells” (EzDiaTech Inc., priority 2018, dated 2024)
≈ marks a conversion by molar mass, not a printed value.

Assays:
[1] = test system: Escherichia coli (E. coli) ATCC 25922; experiment: Rapid antibiotic susceptibility test with microwell-patterned hydrogel in 96 well plate, time-lapse imaging; assay type: cell-based
Protocol: (§1) FIG. 2 is a schematic diagram illustrating a technique for dissociating cell colonies into cells at the level of individual cells and continuously observing the morphological changes of the isolated single cells by utilizing a hydrogel structure according to one embodiment of the present disclosure. Referring to (a) of FIG. 2, a conventional 96 well plate is prepared, and thereafter, a dried microwell-patterned hydrogel is inserted into each well. Referring next to (b) of FIG. 2, a cell culture medium containing bacterial cells, nutrients and antibiotics is introduced into each well containing the dry microwell-patterned hydrogel. At the initial stage of introduction, the bottom microwells of the microwell-patterned hydrogel are not yet seated on the base of the well and the microwell-patterned hydrogel is slightly floating. Thus, the bacterial cells are free to move in and out of each microwell pattern.
(§2) Referring to (c) of FIG. 2, several or tens of minutes after the introduction, the microwell-patterned hydrogel swells and approaches the inner wall of the well. As a result, the top of the microwell-patterned hydrogel is in close contact with the inner sidewall of the well and the bottom of the microwell-patterned hydrogel is seated on and remains attached to the base of the well. At this time, the individual bacterial cell entering the space of each bottom microwell pattern of the microwell-patterned hydrogel is not free to move any further in and out of the microwell pattern and is isolated in the microwell-patterned area due to the pressure of the swollen hydrogel. In a state in which the hydrogel is fully expanded, continuous bacterial morphological changes can be observed after several hours by time-lapse imaging through an objective lens of the optical measurement system. As a result, time-lapse images of the individual bacterial cells can be obtained.
(§3) In the case of the Streptomyces atratus (spore-type actinomycetes) cultures, the final cell concentration of the wells was controlled at 7.5×10^7 CFU/mL with tryptic soy broth (TSB, Sparks, MD) and growth was at 28° C. […] After that, 227.5 μL (91% v/v) of Mueller-Hinton broth (MHB, Fluka Analytical), 2.5 μL (1% v/v) of the antibiotics, and 20 μL (8% v/v) of bacterial cells were mixed and growth was monitored at 37° C.
(§4) In this example, the Clinical Laboratory Standard Institute (CLSI) standard strains, Escherichia coli (E. coli) ATCC 25922 and Staphylococcus aureus (S. aureus) ATCC 29213 were tested with various concentrations of ampicillin and chloramphenicol to determine the minimum inhibitory concentration (MIC) values of the antibiotics. […] The cell growth images were recorded every hour for four hours to observe the change in cell number and morphological change to indicate growth.

[2] = test system: Staphylococcus aureus (S. aureus) ATCC 29213; experiment: as above; assay type: cell-based
Protocol: as §1, §2, §3, §4

[3] = test system: E. coli ATCC 25922; details: cited from earlier work
[4] = test system: S. aureus ATCC 29213; details: cited from earlier work
[5] = test system: methicillin-resistant Staphylococcus aureus (MRSA); experiment: Rapid antibiotic susceptibility test with microwell-patterned hydrogel structures, running time 4 hours; assay type: cell-based; details: rapid method, running time 4 hours, read-out: minimum inhibitory concentration (MIC)
Protocol: In the case of the Streptomyces atratus (spore-type actinomycetes) cultures, the final cell concentration of the wells was controlled at 7.5×10^7 CFU/mL with tryptic soy broth (TSB, Sparks, MD) and growth was at 28° C. For the E. coli ATCC 25922, Staphylococcus aureus ATCC 29213, and methicillin resistant Staphylococcus aureus cultures, the initial concentration of bacterial cells injected into each well was set to 3×10^8 CFU/mL with Mueller-Hinton broth (MHB, Fluka Analytical). In order to adjust the concentration of antibiotics, ampicillin (Sigma-Aldrich) and chloramphenicol (Sigma-Aldrich), a two-fold serial dilution method was used. After that, 227.5 μL (91% v/v) of Mueller-Hinton broth (MHB, Fluka Analytical), 2.5 μL (1% v/v) of the antibiotics, and 20 μL (8% v/v) of bacterial cells were mixed and growth was monitored at 37° C.

[6] = test system: methicillin-resistant Staphylococcus aureus (MRSA); experiment: Conventional antibiotic susceptibility test using turbidity, running time 18-24 hours; assay type: cell-based; details: conventional method using turbidity, running time 18-24 hours, read-out: minimum inhibitory concentration (MIC)
Excerpt: Although numerous AST approaches have been studied, molecular and cell culturing systems are typical. The molecular AST method can obtain results quickly, in just a few hours, but can be adopted only in restrictive conditions with analytical equipment such as PCR machine and requires much more research to be used widely in clinical applications. In contrast with the molecular method, the cell culturing system is accurate and most used in the clinical arena, so it is regarded as the standard AST system. The most commonly employed AST process in the cell culturing system is the liquid microdilution method. This traditional AST system requires 18˜24 hours because the liquid microdilution method determines the minimum inhibitory concentration (MIC) of the relevant antibiotics by identifying a change in turbidity of culture wells. The turbidity is indirectly measured by optical density (OD) coming from cell growth, which is proportional to the concentration of the bacterial cells in the culture well. However, the OD evaluation is not sensitive to the bacterial cell population expansion when the concentration of the bacterial cells is conspicuously low. Thus, it needs 18-24 hours to accurately distinguish whether the bacterial cells grow or not under particular concentrations of antibiotics.

Row | MIC ([1]; Escherichia coli, ATCC25922, 4 h, E. coli ATCC 25922, hydrogel device, images every hour for four hours, 37° C., read-out: minimum inhibitory concentration (MIC)) [µg/mL] | MIC ([2]; Staphylococcus aureus, ATCC29213, 4 h, S. aureus ATCC 29213, hydrogel device, images every hour for four hours, 37° C., read-out: minimum inhibitory concentration (MIC)) [µg/mL] | MIC [5] [µg/mL] | MIC [6] [µg/mL] | Structure (SMILES) | CLSI minimum inhibitory concentration (MIC) range [3] [µg/mL] | CLSI minimum inhibitory concentration (MIC) range [4] [µg/mL] | concentration at which cells could not divide and showed filamentary growth ([1]; E. coli, optical microscopic images, FIG. 8 (a)) [µg/mL] | concentration at which bacterial cells could not divide or grow ([2]; S. aureus, optical microscopic images, FIG. 8 (b)) [µg/mL]
1 | 8 (≈ 24.8 µM) | 4 (≈ 12.4 µM) |  |  | O=C(N[C@H](CO)[C@H](O)c1ccc([N+](=O)[O-])cc1)C(Cl)Cl [chloramphenicol] | 2 to 8 | 2 to 8 |  | 
2 |  |  | 64 (≈ 183 µM) | 64 (≈ 183 µM) | CC1(C)S[C@@H]2[C@H](NC(=O)[C@H](N)c3ccccc3)C(=O)N2[C@H]1C(=O)O [ampicillin] | 2 to 8 | 0.5 to 2 | ≥ 2 | ≥ 2
